Values quoted from earlier work as cited in patent publication US8846607B2, “Particles for treatment of pulmonary infection” (President and Fellows of Harvard College, priority 2004, dated 2014).

Test system: non-replicating TB
Conditions: after one month, non-replicating TB in vitro

Substance: capreomycin
- log decrease in colony forming units (CFU): one to two
